Test results taken from patent publication US20240115744A1, “FIBRIN-BINDING COMPOUNDS FOR IMAGING AND TREATMENT” (Collagen Medical, LLC, priority 2019, published 2024).
Read-outs that look alike come from different tables or passages of the source. Where a SMILES comes first, the peptide text is derived from it. Bridges are numbered along the chain shown (N, C = ends). [ ]: non-standard residue; d: D form. The star is where a group is joined. Tyr(3-Cl) = N[C@@H](Cc1ccc(O)c(Cl)c1)C(=O)O; Nicotinoyl(6-F) = O=C(c1ccc(F)nc1)*; Hyp = O=C(O)[C@@H]1C[C@@H](O)CN1

B1: Compound 10 (peptide)
peptide: {Nicotinoyl(6-F)}-Y[dE]C[Hyp][Tyr(3-Cl)]GLCYI[dL]-NH2
modifications: disulfide 3-8
SMILES: CC[C@H](C)[C@H](NC(=O)[C@H](Cc1ccc(O)cc1)NC(=O)[C@@H]1CSSC[C@H](NC(=O)[C@@H](CCC(=O)O)NC(=O)[C@H](Cc2ccc(O)cc2)NC(=O)c2ccc(F)nc2)C(=O)N2C[C@H](O)C[C@H]2C(=O)N[C@@H](Cc2ccc(O)c(Cl)c2)C(=O)NCC(=O)N[C@@H](CC(C)C)C(=O)N1)C(=O)N[C@H](CC(C)C)C(N)=O
B2: Compound 11 (peptide)
peptide: {Nicotinoyl(6-F)}-[dY][dE]C[Hyp][Tyr(3-Cl)]GLCYI[dQ]-NH2
modifications: disulfide 3-8
SMILES: CC[C@H](C)[C@H](NC(=O)[C@H](Cc1ccc(O)cc1)NC(=O)[C@@H]1CSSC[C@H](NC(=O)[C@@H](CCC(=O)O)NC(=O)[C@@H](Cc2ccc(O)cc2)NC(=O)c2ccc(F)nc2)C(=O)N2C[C@H](O)C[C@H]2C(=O)N[C@@H](Cc2ccc(O)c(Cl)c2)C(=O)NCC(=O)N[C@@H](CC(C)C)C(=O)N1)C(=O)N[C@H](CCC(N)=O)C(N)=O

Legend:
[1] = molecular target: T1, soluble fibrin fragment DD(E) (Homo sapiens, UniProt P02671+P02675+P02679, DEL433-453); assay: Fluorescence polarization DD(E) binding/displacement assay; settings: for Ki: displacement of TRITC-labelled peptide from DD(E), TBS·Ca with 2% DMSO, estimated uncertainty ±10%; for Kd: sub-micromolar affinity, read-out: affinity (Kd) to fibrin as assessed by DD(E) assay
T1 construct: partial plasmin digestion of purified fibrin gel followed by size-exclusion chromatographic purification; made in house
Protocol: DD(E) was prepared using a published procedure which involved partial plasmin digestion of purified fibrin gel followed by size-exclusion chromatographic purification, and purity was assessed by SDS-PAGE. Peptides modified at the N-terminus with tetramethyl-rhodamine (TRITC) dye bind to DD(E). Direct fluorescent peptide binding to DD(E) was measured by a fluorescence polarization (FP) assay. The anisotropy (robs) of the fluorescently labeled peptides binding to DD(E) (0-20 μM) was measured in Tris buffered saline (50 mM Tris, 100 mM NaCl and 2 mM CaCl2) at fixed compound concentrations, and the data were fit to a single site model (Eq. 1) to obtain the dissociation constant (Kd) for the DD(E)·(fluorescent peptide) complex.
Displacement of the fluorescent peptide by non-fluorescent compound was measured to determine inhibition constants (Ki). In the presence of an inhibitor, an apparent dissociation constant for the fluorescent compound (Kd app) is determined using Eq. 2. The inhibition constant Ki is related to Kd app by Eq. 2, wherein Kd is the true dissociation constant of the fluorescent compound measured in the absence of inhibitor.
Non-labeled peptide binding to DD(E) was measured by a compound displacement assay, where a DD(E)/Fl·pep complex formed at fixed concentrations of DD(E) and Fl·pep was titrated with increasing concentrations of unlabeled compound. The compound was assayed by mixing DD(E) (4.0 μM, 10 μL) and TRITC (0.1 μM, 10 μL) with increasing concentrations of competing peptide (0.4-100 μM, 20 μL) in TBS·Ca with 2% DMSO in a final volume of 40 μL. Fluorescence polarization of the samples (10 μL, triplicate wells) in ascending concentrations was measured in a 384-well microplate (Corning flat black plate), using a Tecan Infinite 200 Pro fluorescence microplate reader equipped with fluorescence polarization filters, a 535 nm excitation filter and a 590 nm fluorescence emission filter. Average polarization (mP units) readings for each dilution of the compound of interest was converted to anisotropy (r) using Eq. 3.
The data defined a displacement curve (robs vs. [Peptide]), and the inhibitory binding constant, Ki, was determined by least squares fitting of the data (estimated uncertainty in Ki±10%). See Table 2 for the Ki values for the Compounds from Example 1.

[2] = molecular target: soluble fibrin fragment DD(E); assay: fluorescence polarization, displacement of the TRITC peptide from DD(E)

T1 sequence (P02671 130-216 limits assumed, stated change not applied): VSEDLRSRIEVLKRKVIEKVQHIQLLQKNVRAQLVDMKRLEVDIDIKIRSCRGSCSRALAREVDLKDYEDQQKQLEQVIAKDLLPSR
T1 sequence (P02675 164-491 limits assumed, stated change not applied): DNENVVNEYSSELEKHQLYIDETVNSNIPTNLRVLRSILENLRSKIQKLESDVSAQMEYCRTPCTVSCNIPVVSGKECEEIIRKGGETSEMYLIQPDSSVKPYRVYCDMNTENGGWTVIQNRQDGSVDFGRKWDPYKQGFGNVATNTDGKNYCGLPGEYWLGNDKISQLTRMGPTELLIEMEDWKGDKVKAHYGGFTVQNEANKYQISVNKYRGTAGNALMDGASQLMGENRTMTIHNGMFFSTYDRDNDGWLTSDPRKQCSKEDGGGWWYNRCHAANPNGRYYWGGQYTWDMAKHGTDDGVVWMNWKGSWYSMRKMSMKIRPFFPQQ
T1 sequence (P02679 114-432 limits assumed, stated change not applied): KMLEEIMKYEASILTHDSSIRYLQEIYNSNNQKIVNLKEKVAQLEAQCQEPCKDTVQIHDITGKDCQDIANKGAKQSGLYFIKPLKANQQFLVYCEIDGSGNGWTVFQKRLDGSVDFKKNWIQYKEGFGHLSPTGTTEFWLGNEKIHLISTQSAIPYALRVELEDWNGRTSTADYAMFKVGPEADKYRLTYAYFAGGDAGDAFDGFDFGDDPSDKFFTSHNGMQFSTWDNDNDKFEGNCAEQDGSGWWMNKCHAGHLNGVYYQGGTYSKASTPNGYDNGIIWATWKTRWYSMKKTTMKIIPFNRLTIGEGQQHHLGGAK
T1 sequence (P02671 36-97 partner limits assumed): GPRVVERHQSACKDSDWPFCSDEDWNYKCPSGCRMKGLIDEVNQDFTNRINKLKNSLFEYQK
T1 sequence (P02675 45-152 partner limits assumed): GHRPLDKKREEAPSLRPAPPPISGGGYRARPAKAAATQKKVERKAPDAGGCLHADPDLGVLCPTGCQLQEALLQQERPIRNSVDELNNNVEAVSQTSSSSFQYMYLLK
T1 sequence (P02679 27-88 partner limits assumed): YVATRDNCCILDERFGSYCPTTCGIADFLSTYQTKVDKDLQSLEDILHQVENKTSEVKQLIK

Molecule	Ki ([1]; read-out: Ki) [nM]	further results
CC[C@H](C)[C@H](NC(=O)[C@H](Cc1c[nH]cn1)NC(=O)[C@@H]1CSSC[C@H](NC(=O)[C@@H](CCC(=O)O)NC(=O)[C@@H](Cc2ccc(O)cc2)NC(=O)c2ccc(F)nc2)C(=O)N2C[C@H](O)C[C@H]2C(=O)N[C@@H](Cc2ccc(O)c(Cl)c2)C(=O)NCC(=O)N[C@@H](CC(C)C)C(=O)N1)C(=O)N[C@@H](CCC(N)=O)C(N)=O [Compound 2, -y-e-C-Hyp-Y(3-Cl)-G-L-C-H-I-Q-] ({Nicotinoyl(6-F)}-[dY][dE]C[Hyp][Tyr(3-Cl)]GLCHIQ-NH2; disulfide 3-8)	70	Kd [1]: < 600 nM
CC[C@H](C)[C@H](NC(=O)[C@H](Cc1c[nH]cn1)NC(=O)[C@@H]1CSSC[C@H](NC(=O)[C@@H](CCC(=O)O)NC(=O)[C@@H](Cc2ccc(O)cc2)NC(=O)c2ccc(F)nc2)C(=O)N2C[C@H](O)C[C@H]2C(=O)N[C@@H](Cc2ccc(O)c(Cl)c2)C(=O)NCC(=O)N[C@@H](CC(C)C)C(=O)N1)C(=O)N[C@H](CC(C)C)C(N)=O [Compound 3, -y-e-C-Hyp-Y(3-Cl)-G-L-C-H-I-1-] ({Nicotinoyl(6-F)}-[dY][dE]C[Hyp][Tyr(3-Cl)]GLCHI[dL]-NH2; disulfide 3-8)	140	Kd [1]: < 600 nM
CC[C@H](C)[C@H](NC(=O)[C@H](Cc1c[nH]cn1)NC(=O)[C@@H]1CSSC[C@H](NC(=O)[C@@H](CCC(=O)O)NC(=O)[C@H](Cc2ccc(O)cc2)NC(=O)c2ccc(F)nc2)C(=O)N2C[C@H](O)C[C@H]2C(=O)N[C@@H](Cc2ccc(O)c(Cl)c2)C(=O)NCC(=O)N[C@@H](CC(C)C)C(=O)N1)C(=O)N[C@@H](CCC(N)=O)C(N)=O [Compound 4, -Y-e-C-Hyp-Y(3-Cl)-G-L-C-H-I-Q-] ({Nicotinoyl(6-F)}-Y[dE]C[Hyp][Tyr(3-Cl)]GLCHIQ-NH2; disulfide 3-8)	180	Kd [1]: < 600 nM
CC[C@H](C)[C@H](NC(=O)[C@H](Cc1c[nH]cn1)NC(=O)[C@@H]1CSSC[C@H](NC(=O)[C@@H](CCC(=O)O)NC(=O)[C@H](Cc2ccc(O)cc2)NC(=O)c2ccc(F)nc2)C(=O)N2C[C@H](O)C[C@H]2C(=O)N[C@@H](Cc2ccc(O)c(Cl)c2)C(=O)NCC(=O)N[C@@H](CC(C)C)C(=O)N1)C(=O)N[C@H](CCC(N)=O)C(N)=O [Compound 5, -Y-e-C-Hyp-Y(3-Cl)-G-L-C-H-I-q-] ({Nicotinoyl(6-F)}-Y[dE]C[Hyp][Tyr(3-Cl)]GLCHI[dQ]-NH2; disulfide 3-8)	230	Kd [1]: < 600 nM
CC[C@H](C)[C@H](NC(=O)[C@H](Cc1c[nH]cn1)NC(=O)[C@@H]1CSSC[C@H](NC(=O)[C@@H](CCC(=O)O)NC(=O)[C@H](Cc2ccc(O)cc2)NC(=O)c2ccc(F)nc2)C(=O)N2C[C@H](O)C[C@H]2C(=O)N[C@@H](Cc2ccc(O)c(Cl)c2)C(=O)NCC(=O)N[C@@H](CC(C)C)C(=O)N1)C(=O)N[C@H](CC(C)C)C(N)=O [Compound 8, -Y-e-C-Hyp-Y(3-Cl)-G-L-C-H-I-1-] ({Nicotinoyl(6-F)}-Y[dE]C[Hyp][Tyr(3-Cl)]GLCHI[dL]-NH2; disulfide 3-8)	640	
CC[C@H](C)[C@H](NC(=O)[C@H](Cc1ccc(O)cc1)NC(=O)[C@@H]1CSSC[C@H](NC(=O)[C@@H](CCC(=O)O)NC(=O)[C@@H](Cc2ccc(O)cc2)NC(=O)c2ccc(F)nc2)C(=O)N2C[C@H](O)C[C@H]2C(=O)N[C@@H](Cc2ccc(O)c(Cl)c2)C(=O)NCC(=O)N[C@@H](CC(C)C)C(=O)N1)C(=O)N[C@H](CC(C)C)C(N)=O [Compound 9, -y-e-C-Hyp-Y(3-Cl)-G-L-C-Y-I-1-] ({Nicotinoyl(6-F)}-[dY][dE]C[Hyp][Tyr(3-Cl)]GLCYI[dL]-NH2; disulfide 3-8)	730	
CC[C@H](C)[C@H](NC(=O)[C@H](Cc1ccc(O)cc1)NC(=O)[C@@H]1CSSC[C@H](NC(=O)[C@@H](CCC(=O)O)NC(=O)[C@H](Cc2ccc(O)cc2)NC(=O)c2ccc(F)nc2)C(=O)N2C[C@H](O)C[C@H]2C(=O)N[C@@H](Cc2ccc(O)c(Cl)c2)C(=O)NCC(=O)N[C@@H](CC(C)C)C(=O)N1)C(=O)N[C@H](CC(C)C)C(N)=O [Compound 10, -Y-e-C-Hyp-Y(3-Cl)-G-L-C-Y-I-1-] ({Nicotinoyl(6-F)}-Y[dE]C[Hyp][Tyr(3-Cl)]GLCYI[dL]-NH2; disulfide 3-8)	950	
CC[C@H](C)[C@H](NC(=O)[C@H](Cc1ccc(O)cc1)NC(=O)[C@@H]1CSSC[C@H](NC(=O)[C@@H](CCC(=O)O)NC(=O)[C@@H](Cc2ccc(O)cc2)NC(=O)c2ccc(F)nc2)C(=O)N2C[C@H](O)C[C@H]2C(=O)N[C@@H](Cc2ccc(O)c(Cl)c2)C(=O)NCC(=O)N[C@@H](CC(C)C)C(=O)N1)C(=O)N[C@H](CCC(N)=O)C(N)=O [Compound 11, -y-e-C-Hyp-Y(3-Cl)-G-L-C-Y-I-q-] ({Nicotinoyl(6-F)}-[dY][dE]C[Hyp][Tyr(3-Cl)]GLCYI[dQ]-NH2; disulfide 3-8)	1010	
CC[C@H](C)[C@H](NC(=O)[C@H](Cc1ccc(O)cc1)NC(=O)[C@@H]1CSSC[C@H](NC(=O)[C@@H](CCC(=O)O)NC(=O)[C@H](Cc2ccc(O)cc2)NC(=O)c2ccc(F)nc2)C(=O)N2C[C@H](O)C[C@H]2C(=O)N[C@@H](Cc2ccc(O)c(Cl)c2)C(=O)N[C@@H](CC(=O)O)C(=O)N[C@@H](CC(C)C)C(=O)N1)C(=O)N[C@@H](CCC(N)=O)C(N)=O [Compound 12, -Y-e-C-Hyp-Y(3-Cl)-D-L-C-Y-I-Q-] ({Nicotinoyl(6-F)}-Y[dE]C[Hyp][Tyr(3-Cl)]DLCYIQ-NH2; disulfide 3-8)	1200	
CC[C@H](C)[C@H](NC(=O)[C@H](Cc1ccc(O)cc1)NC(=O)[C@@H]1CSSC[C@H](NC(=O)[C@@H](CCC(=O)O)NC(=O)[C@H](Cc2ccc(O)cc2)NC(=O)c2ccc(F)nc2)C(=O)N2C[C@H](O)C[C@H]2C(=O)N[C@@H](Cc2ccc(O)c(Cl)c2)C(=O)NCC(=O)N[C@@H](CC(C)C)C(=O)N1)C(=O)N[C@H](CCC(N)=O)C(N)=O [Compound 13, -Y-e-C-Hyp-Y(3-Cl)-G-L-C-Y-I-q-] ({Nicotinoyl(6-F)}-Y[dE]C[Hyp][Tyr(3-Cl)]GLCYI[dQ]-NH2; disulfide 3-8)	1250	
CC[C@H](C)[C@H](NC(=O)[C@H](Cc1ccc(O)cc1)NC(=O)[C@@H]1CSSC[C@H](NC(=O)[C@@H](CCC(=O)O)NC(=O)[C@H](Cc2ccc(O)cc2)NC(=O)c2ccc(F)nc2)C(=O)N2C[C@H](O)C[C@H]2C(=O)N[C@@H](Cc2ccc(O)c(Cl)c2)C(=O)N[C@H](CC(=O)O)C(=O)N[C@@H](CC(C)C)C(=O)N1)C(=O)N[C@@H](CCC(N)=O)C(N)=O [Compound 14, -Y-e-C-Hyp-Y(3-Cl)-d-L-C-Y-I-Q-] ({Nicotinoyl(6-F)}-Y[dE]C[Hyp][Tyr(3-Cl)][dD]LCYIQ-NH2; disulfide 3-8)	2760	
-Y-h-C-Hyp-Y(3-Cl)-G-L-C-Y-I-Q- ({Nicotinoyl(6-F)}-Y[dH]C[Hyp][Tyr(3-Cl)]GLCYIQ-NH2; disulfide 3-8; not fully specified; printed as -Y-h-C-Hyp-Y(3-Cl)-G-L-C-Y-I-Q-) [Compound 15, N-terminal modified peptide (F is fluorine), C-terminal amide]		Ki [1]: No
B1		Ki [2]: 950 nM
B2		Ki [2]: 1010 nM
